# Measured values from patent publication US10683287B2, “Heterocyclic derivatives and their use in the treatment of neurological disorders” (Novartis AG, priority 2011, dated 2020).
# pIC50: −log10 of the molar value. Where a name gives a salt, the structure may show the parent alone.
# Tested on: Cellular Release of Amyloid Peptide 1-40
# Test: Test 4: Inhibition of Cellular Release of Amyloid Peptide 1-40
# Assay type: cell-based, Chinese hamster
# Details: Cricetulus griseus, 24 h; read-out: Amyloid-β1-40 release IC50
# Description: Chinese hamster ovary cells are transfected with the human gene for amyloid precursor protein. The cells are plated at a density of 8000 cells/well into 96-well microtiter plates and cultivated for 24 hours in DMEM cell culture medium containing 10% FCS. The test compound is added to the cells at various concentrations, and the cells are cultivated for 24 hours in the presence of the test compound.
row,pIC50,SMILES
1,5.32,"Cc1cc(C#N)cnc1C(=O)Nc1cc([C@@]2(C)CO[C@@](C)(C(F)(F)F)C(N)=N2)c(F)cn1 [Example 17, 5-Cyano-3-methyl-pyridine-2-carboxylic acid [4-((3S,6R)-5-amino-3,6-dimethyl-6-trifluoromethyl-3,6-dihydro-2H-[1,4]oxazin-3-yl)-5-fluoro-pyridin-2-yl]-amide]"
2,7.82,"NC1=NC(CF)(c2cc(NC(=O)c3ccc(Br)cn3)cnc2Cl)COC1 (stereo not shown) [Example 18, 5-Bromo-pyridine-2-carboxylic acid [5-(5-amino-3-fluoromethyl-3,6-dihydro-2H-[1,4]oxazin-3-yl)-6-chloro-pyridin-3-yl]-amide hydrochloride]"
3,8.30,"C[C@@]1(c2cccc(NC(=O)c3ncc(C#N)cc3Cl)n2)CO[C@@](C)(C(F)(F)F)C(N)=N1 [Example 20, 3-Chloro-5-cyano-pyridine-2-carboxylic acid [6-((3R,6R)-5-amino-3,6-dimethyl-6-trifluoromethyl-3,6-dihydro-2H-[1,4]oxazin-3-yl)-pyridin-2-yl]-amide]"
4,6.96,"[2H]c1nc(C(=O)Nc2cccc([C@]3(C)CO[C@@](C)(C(F)(F)F)C(N)=N3)n2)c(C([2H])([2H])[2H])c([2H])c1Cl [Example 21, 5-Chloro-4,6-dideuterio-3-trideuteriomethyl-pyridine-2-carboxylic acid [6-((3R,6R)-5-amino-3,6-dimethyl-6-trifluoromethyl-3,6-dihydro-2H-[1,4]oxazin-3-yl)-pyridin-2-yl]-amide]"
5,7.54,"C[C@@]1(c2cccc(NC(=O)c3ncc(Br)cc3Cl)n2)CO[C@@](C)(C(F)(F)F)C(N)=N1 [Example 22, 5-Bromo-3-chloro-pyridine-2-carboxylic acid [6-((3R,6R)-5-amino-3,6-dimethyl-6-trifluoromethyl-3,6-dihydro-2H-[1,4]oxazin-3-yl)-pyridin-2-yl]-amide]"
6,6.89,"Cc1cnc(C(=O)Nc2ccc(F)c([C@]3(C)CO[C@@](C)(C(F)(F)F)C(N)=N3)n2)cn1 [Example 33, 5-Methyl-pyrazine-2-carboxylic acid [6-((3R,6R)-5-amino-3,6-dimethyl-6-trifluoromethyl-3,6-dihydro-2H-[1,4]oxazin-3-yl)-5-fluoro-pyridin-2-yl]amide]"
7,6.85,"C[C@@]1(c2cc(NC(=O)c3ncc(C#N)cc3Cl)ncc2F)CO[C@@](C)(C(F)(F)F)C(N)=N1 [Example 35, 3-Chloro-5-cyano-pyridine-2-carboxylic acid [4-((3R,6R)-5-amino-3,6-dimethyl-6-trifluoromethyl-3,6-dihydro-2H-[1,4]oxazin-3-yl)-5-fluoro-pyridin-2-yl]-amide]"
8,8.30,"Cc1cc(C#N)cnc1C(=O)Nc1ccc(F)c([C@]2(C(F)F)COCC(N)=N2)n1 [Example 38, 5-Cyano-3-methyl-pyridine-2-carboxylic acid [6-((R)-5-amino-3-difluoromethyl-3,6-dihydro-2H-[1,4]oxazin-3-yl)-5-fluoro-pyridin-2-yl]-amide]"
9,6.54,"Cc1cc(C#N)cnc1C(=O)Nc1ccc(F)c([C@@]2(C(F)F)COCC(N)=N2)n1 [Example 39, 5-Cyano-3-methyl-pyridine-2-carboxylic acid [6-((S)-5-amino-3-difluoromethyl-3,6-dihydro-2H-[1,4]oxazin-3-yl)-5-fluoro-pyridin-2-yl]-amide]"
10,7.92,"N#Cc1cnc(C(=O)Nc2ccc(F)c([C@]3(C(F)F)COCC(N)=N3)n2)c(Cl)c1 [Example 40, 3-Chloro-5-cyano-pyridine-2-carboxylic acid [6-((R)-5-amino-3-difluoromethyl-3,6-dihydro-2H-[1,4]oxazin-3-yl)-5-fluoro-pyridin-2-yl]-amide]"
11,6.43,"COCCn1ccc2nc(C(=O)Nc3ccc(F)c([C@]4(C)CO[C@@](C)(C(F)(F)F)C(N)=N4)n3)c(N)nc21 [Example 43, 3-Amino-5-(2-methoxy-ethyl)-5H-pyrrolo[2,3-b]pyrazine-2-carboxylic acid [6-((3R,6R)-5-amino-3,6-dimethyl-6-trifluoromethyl-3,6-dihydro-2H-[1,4]oxazin-3-yl)-5-fluoro-pyridin-2-yl]amide]"
12,5.44,"C[C@@]1(c2nc(NC(=O)c3nc4ccn(CC(F)F)c4nc3N)ccc2F)CO[C@@](C)(C(F)(F)F)C(N)=N1 [Example 45, 3-Amino-5-(2,2-difluoro-ethyl)-5H-pyrrolo[2,3-b]pyrazine-2-carboxylic acid [6-((3R,6R)-5-amino-3,6-dimethyl-6-trifluoromethyl-3,6-dihydro-2H-[1,4]oxazin-3-yl)-5-fluoro-pyridin-2-yl]-amide]"

row,SMILES,pIC50
1,"C[C@@]1(c2cccc(NC(=O)c3ncc(C#N)cc3N)n2)CO[C@@](C)(C(F)(F)F)C(N)=N1 [Example 19, 3-Amino-5-cyano-pyridine-2-carboxylic acid [6-((3R,6R)-5-amino-3,6-dimethyl-6-trifluoromethyl-3,6-dihydro-2H-[1,4]oxazin-3-yl)-pyridin-2-yl]-amide]",7.32
2,"COc1cnc(C(=O)Nc2ccc(F)c([C@]3(C)CO[C@@](C)(C(F)(F)F)C(N)=N3)n2)c(C)c1 [Example 25, 5-Methoxy-3-methyl-pyridine-2-carboxylic acid [6-((3R,6R)-5-amino-3,6-dimethyl-6-trifluoromethyl-3,6-dihydro-2H-[1,4]oxazin-3-yl)-5-fluoro-pyridin-2-yl]amide]",7.12
3,"Cc1cc(OC(F)F)cnc1C(=O)Nc1ccc(F)c([C@]2(C)CO[C@@](C)(C(F)(F)F)C(N)=N2)n1 [Example 29, 5-Difluoromethoxy-3-methyl-pyridine-2-carboxylic acid [6-((3R,6R)-5-amino-3,6-dimethyl-6-trifluoromethyl-3,6-dihydro-2H-[1,4]oxazin-3-yl)-5-fluoro-pyridin-2-yl]amide]",7.62
4,"Cc1cc(OCF)cnc1C(=O)Nc1ccc(F)c([C@]2(C)CO[C@@](C)(C(F)(F)F)C(N)=N2)n1 [Example 32, 5-Fluoromethoxy-3-methyl-pyridine-2-carboxylic acid [6-((3R,6R)-5-amino-3,6-dimethyl-6-trifluoromethyl-3,6-dihydro-2H-[1,4]oxazin-3-yl)-5-fluoro-pyridin-2-yl]amide]",7.59
5,"Cc1cc(C#N)cnc1C(=O)Nc1cc([C@]2(C)COC(CF)(CF)C(N)=N2)c(F)cn1 [Example 37, 5-Cyano-3-methyl-pyridine-2-carboxylic acid [4-((R)-5-amino-6,6-bis-fluoromethyl-3-methyl-3,6-dihydro-2H-[1,4]oxazin-3-yl)-5-fluoro-pyridin-2-yl]-amide]",7.08
6,"Cc1cnc(C(=O)Nc2ccc(F)c([C@]3(C)CO[C@@](C)(C(F)(F)F)C(N)=N3)n2)c(C)n1 [Example 41, 3,5-Dimethyl-pyrazine-2-carboxylic acid [6-((3R,6R)-5-amino-3,6-dimethyl-6-trifluoromethyl-3,6-dihydro-2H-[1,4]oxazin-3-yl)-5-fluoro-pyridin-2-yl]amide]",6.79
7,"C[C@@]1(c2nc(NC(=O)c3ncc(OCCCF)nc3N)ccc2F)CO[C@@](C)(C(F)(F)F)C(N)=N1 [Example 42, 3-Amino-5-(3-fluoro-propoxy)-pyrazine-2-carboxylic acid [6-((3R,6R)-5-amino-3,6-dimethyl-6-trifluoromethyl-3,6-dihydro-2H-[1,4]oxazin-3-yl)-5-fluoro-pyridin-2-yl]amide]",7.14
